Measured values published in BindingDB's records for doi:10.1016/s0960-894x(02)00385-2 (National Institute of Diabetes and Digestive and Kidney …, 2002).

Target: T1, Mycothiol S-conjugate amidase (Mycobacterium tuberculosis (strain ATCC 25618 / H37Rv), UniProt P9WJN1)
T1 sequence (P9WJN1 whole entry): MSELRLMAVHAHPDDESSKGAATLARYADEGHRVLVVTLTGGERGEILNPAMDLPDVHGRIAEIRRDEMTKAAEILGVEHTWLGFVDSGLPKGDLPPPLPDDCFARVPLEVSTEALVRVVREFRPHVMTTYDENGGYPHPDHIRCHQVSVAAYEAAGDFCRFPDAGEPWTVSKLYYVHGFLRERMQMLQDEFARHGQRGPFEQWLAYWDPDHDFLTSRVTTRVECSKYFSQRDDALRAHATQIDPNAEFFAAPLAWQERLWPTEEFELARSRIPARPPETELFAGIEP
Experiment: ChEBML_140808
Text: Inhibition of Mycothiol -S-conjugate amidase (MCA) from mycobacterium tuberculosis

Row | SMILES | IC50
1 | O=NC(Cc1ccc(O)c(Br)c1)C(=O)NCCSSCCNC(=O)C(Cc1ccc(O)c(Br)c1)N=O (configuration not stated) [3-(3-bromo-4-hydroxy-phenyl)-N-[2-(2-{3-(3-bromo-4-hydroxy-phenyl)-2-[hydroxyimino]-propionylamino}-ethyldisulfanyl)-ethyl]-2-[hydroxyimino]-propionamide] | 2800 nM
2 | N=C(N)CCCCNC(=O)C(Cc1cc(Br)c(OCCCN)c(Br)c1)N=O (configuration not stated) [3-[4-(3-Amino-propoxy)-3,5-dibromo-phenyl]-N-(4-carbamimidoyl-butyl)-2-[(E)-hydroxyimino]-propionamide] | 2800 nM
